Measurements as given in patent US20160279063A1, “COMPOSITION OF EXCIPIENTS AND PHARMACEUTICAL FORMS WITH SUSTAINED RELEASE AND INCREASED BIOAVAILABILITY OF ANTIBACTERIAL DRUGS, ANTICOCCIDIAL DRUGS AND OTHER DRUGS FOR COMMERCIAL POULTRY AND PIGS” (priority 2012, published 2016).
Where a name gives a salt, the structure may show the parent alone. Read-outs that look alike come from different tables or passages of the source.

Experiments:
[1] = cited from earlier work
[2] = Background bioavailability and elimination of drugs in pigs; conditions: associated to FOLA system, single dose in the morning with food
From the text: Serum concentrations are not reached by night and in breeding sows doses should be 3000 ppm as they only eat an average of 2 kg with a weight of 300 kg. This is obviously not performed as they would reject food. • Tylosin and tiamulin are often underdosed due to costs. […] FOLA system achieves that easily even better than if that would have been injected. • Provision of phosphomycin in food is not useful since its F is below 20% and is eliminated in a few hours. Associated to FOLA system the results allow a single dose in the morning with food reaching F close to 100% and during 24 hours.

[3] = pigs, cited from earlier work; for F (bioavailability): conventional oral administration
[4] = Tylosin tartrate pharmacokinetics, FOLA vs commercially available, 200 ppm in food; format: in vivo, commercial poultry; conditions: when included in FOLA system, food ad libitum, poultry of 1.9 kg
From the text: Note generation of concentrations quite higher than traditional system (Cmax, MRT and AUC), which makes suitable its PK/PD ratio when included in FOLA system.
For Tylosin in commercial poultry, very high concentrations are achieved when FOLA system is used and which remain with therapeutic effect along night as shown in charts of FIGS. 4a and 4b. Variables disclosed below are pharmacokinetically obtained for tylosin in FOLA and a commercially available reference preparation: […]

[5] = Florphenicol pharmacokinetics, FOLA vs commercially available, 20 mg/kg, 3 days; format: in vivo, commercial poultry; conditions: along three days, 20 mg/kg in food, when included in FOLA system
Description: Note generation of concentrations higher than traditional system (Cmax, MRT and AUC), which makes suitable its PK/PD ratio when included in FOLA system.
Note a generation of concentrations lower than 3 μg/mL, making suitable its PK/PD ratio when included in FOLA system.
Tests in Commercial Poultry
Variables disclosed below are pharmacokinetically obtained for florphenicol in FOLA and a commercially available reference preparation administered during 3 days: […]

[6] = humans; cited from earlier work
[7] = commercial poultry, conventional oral administration

CC[C@H]1OC(=O)C[C@@H](O)[C@H](C)[C@@H](O[C@@H]2O[C@H](C)[C@@H](O[C@H]3C[C@@](C)(O)[C@@H](O)[C@H](C)O3)[C@H](N(C)C)[C@H]2O)[C@@H](CC=O)C[C@@H](C)C(=O)/C=C/C(C)=C/[C@@H]1CO[C@@H]1O[C@H](C)[C@@H](O)[C@@H](OC)[C@H]1OC [Tylosin]
F (bioavailability) [1, 7]: < 40%

C[C@@H]1O[C@@H]1P(=O)(O)O [Phosphomycin]
F (bioavailability) [2]: ~100% | F (bioavailability) [3]: below 20% | time to removal from plasma and tissues ([1]; in water, usual doses 10-40 mg/kg/day): 6 to 8 h

CC[C@H]1OC(=O)[C@H](C)[C@@H](O[C@H]2C[C@@](C)(OC)[C@@H](O)[C@H](C)O2)[C@H](C)[C@@H](O[C@@H]2O[C@H](C)C[C@H](N(C)C)[C@H]2O)[C@](C)(O)C[C@@H](C)C(=O)[C@H](C)[C@@H](O)[C@]1(C)O [Erithromycin]
F (bioavailability) ([1]; in vivo, po): 18%

CC[C@H]1OC(=O)C[C@@H](O)[C@H](C)[C@@H](O[C@@H]2O[C@H](C)[C@@H](O[C@H]3C[C@@](C)(O)[C@@H](O)[C@H](C)O3)[C@H](N(C)C)[C@H]2O)[C@@H](CC=O)C[C@@H](C)C(=O)/C=C/C(C)=C/[C@@H]1CO[C@@H]1O[C@H](C)[C@@H](O)[C@@H](OC)[C@H]1OC [tylosin tartrate]
concentrations reached (FIG. 4b) [4]: exceeding 1.5 μg/mL

CS(=O)(=O)c1ccc([C@@H](O)[C@@H](CF)NC(=O)C(Cl)Cl)cc1 [Florphenicol]
serum concentrations (FIG. 8b) [5]: lower than 3 μg/mL

CCC[C@@H]1C[C@@H](C(=O)N[C@@H]([C@H]2O[C@H](SC)[C@H](O)[C@@H](O)[C@H]2O)[C@@H](C)O)N(C)C1 [Lincomycin]
life [3]: ≥ 20%

CN[C@@H]1[C@H](O)[C@H](NC)[C@H]2O[C@@]3(O)C(=O)C[C@@H](C)O[C@H]3O[C@@H]2[C@H]1O [Spectinomycin]
F (bioavailability) [3]: 7%

CN(C)[C@@H]1C(O)=C(C(N)=O)C(=O)[C@@]2(O)C(O)=C3C(=O)c4c(O)ccc(Cl)c4[C@@](C)(O)[C@H]3C[C@@H]12 [chlortetracycline]
F (bioavailability) [1, 7]: 20%

COc1cc(Cc2cnc(N)nc2N)cc(OC)c1OC [TMP, trimethoprim]
elimination half-life [3]: 1 h | T½β ([1]; birds): 1 h | T½β [6]: 10 h

CN(C)[C@@H]1C(O)=C(C(N)=O)C(=O)[C@@]2(O)C(O)=C3C(=O)c4c(O)cccc4[C@@](C)(O)[C@H]3[C@H](O)[C@@H]12 [Oxytetracycline]
F (bioavailability) [1, 7]: 20% | F (bioavailability) ([1]; commercial poultry, conventional oral administration, listed as oxytetracycline base): around 20%
